Reference: PMC12278462, “Site-selective arylations of nature-inspired flavonoids or steroidal phenols via C—H or O—H activation” (Journal of Enzyme Inhibition and Medicinal Chemistry, 2025)
Like-named read-outs stand apart in the source and are kept apart here.

Assays:
MCF-7 = experiment: MTT antiproliferative assay, MCF-7; type: cell-based, human; settings: Homo sapiens; for inhibition at 10 µM: MCF7, 10 µM; for inhibition at 10 µM / inhibition at 30 µM: 72 h; for inhibition at 30 µM: MCF7, 30 µM; for IC50: MCF7, 72 h, read-out: calculated IC50 MCF-7
Protocol: (§1) We evaluated the cytotoxic activity of the newly synthesised arylated compounds 13–17 by the MTT assay[37] on a panel of human adherent cancer cell lines. The panel included breast (MCF-7 and MDA MB-231) and cervical (HeLa, SiHa and C33A) cancer cell lines differing in receptorial or HPV status. Tumour selectivity was determined on the NIH/3T3 mouse fibroblast cell line.
(§2) Briefly, the panels of breast and cervical cancerous cell lines, differing by their receptorial and HPV status were used, precisely MCF-7 (ER, PR and HER2 positive) and MDA-MB-231 (TNBC) breast carcinoma and HeLa (HPV18+), SiHa (HPV16+), C33A (HPV-) cervical carcinoma cells. Non-cancerous NIH/3T3 mouse fibroblast cell line was used for selectivity study. MCF-7, MDA-MB-231, Hela and NIH/3T3 cell lines were purchased from ECACC (European Collection of Cell Cultures, Salisbury, UK), while SiHa and C33A from ATCC (American Tissue Culture Collection, LGC Standards GmbH, Wesel, Germany). Cells were maintained in Eagle's Minimum Essential Medium (EMEM, Capricorn Scientific GmbH, Ebsdorfergrund, Germany) supplemented with 10% heat-inactivated fetal bovine serum (FBS), 1% non-essential amino acids (NEAA), and 1% antibiotic-antimycotic mixture (penicillin–streptomycin). The cells were maintained at 37 °C in a humidified atmosphere containing 5% CO2.
(§3) For measurements cells were seeded for 96-well plates at a density of 5 000/well, except for C33A, which was seeded in 10 000cells for each well. After overnight standing cells were treated with 10 and 30 µM solutions for screening and increasing concentrations (0.1-30.0 µM) of the test compounds were used for concentration-response curves. After incubation for 72 hours under cell culturing condition 5 mg/ml MTT (3-(4,5-[…])-2,5-diphenyl-2H-tetrazolium bromide) solution was added for another 4 h. The precipitated formazan crystals were solubilized in DMSO and the absorbance was measured at 545 nm with a microplate reader (BMG Labtech, Ortenberg, Germany). Wells with untreated cells were utilized as control, and inhibition % were calculated by GraphPad Prism v 9.0 software (GraphPad Software, San Diego, CA, USA). If the growth-inhibition exceeded 70% at 30 µM concentration during the screening concentration-response curves were fitted and IC50 values were calculated by GraphPad Prism v 9.0. The experiments were performed with five parallel wells for each experimental condition and repeated at least twice.

MDA-MB-231 [1] = experiment: MTT antiproliferative assay, MDA-MB-231; type: cell-based, human; settings: Homo sapiens; for inhibition at 10 µM: MDA-MB-231, 10 µM; for inhibition at 10 µM / inhibition at 30 µM: 72 h; for inhibition at 30 µM: MDA-MB-231, 30 µM; for IC50: MDA-MB-231, 72 h, read-out: calculated IC50 MDA-MB-231
Protocol: as §1, §2, §3

HeLa = experiment: MTT antiproliferative assay, HeLa; type: cell-based, human; settings: Homo sapiens, HeLa, 72 h; for IC50: read-out: calculated IC50 HeLa
Protocol: as §1, §2, §3

SiHa = experiment: MTT antiproliferative assay, SiHa; type: cell-based, human; settings: Homo sapiens, SiHa, 72 h; for IC50: read-out: calculated IC50 SiHa
Protocol: as §1, §2, §3

C33A = experiment: MTT antiproliferative assay, C33A; type: cell-based, human; settings: Homo sapiens, C-33-A, 72 h; for IC50: read-out: calculated IC50 C33A
Protocol: as §1, §2, §3

[2] = test system: NIH/3T3 mouse fibroblast cell line; experiment: MTT assay, tumour selectivity on non-cancerous fibroblasts; type: cell-based; settings: Mus musculus; for inhibition at 10 µM: NIH3T3, 10 µM; for inhibition at 10 µM / inhibition at 30 µM: 72 h; for inhibition at 30 µM: NIH3T3, 30 µM; for IC50: NIH3T3, 72 h, read-out: calculated IC50 NIH/3T3
Protocol: as §1, §2, §3

HeLa cells [3] = experiment: Cell cycle analysis by flow cytometry (propidium iodide); type: cell-based, human; settings: 24 and 48 h
Protocol: To determine the cellular DNA content of the cells, flow cytometry analysis after propidium-iodide labeling was performed. Propidium iodide is a nuclear dye intercalating between the base pairs in DNA without sequence preference. Therefore, the cells' total emitted fluorescence will depend on each cell's DNA content, which varies depending on the cell cycle phase.
Hela cells were seeded into 12-well plates at 200,000 cells/well density for the cell cycle analysis. Cells were incubated overnight prior to the treatment, then treated with 1, 2, and 3 µM solutions of 14c compound for 24 h and 48 hours. After incubation, cells were washed twice with phosphate-buffered saline (PBS) and harvested. After centrifugation at 1200 rpm, for 7 minutes, cells were washed again with 300 µl PBS and fixed in 500 µl cold 70% ethanol. Samples were stained in 300 µl dye solution containing RNaseA, TritonX-100, sodium citrate, and 0.1 mg/ml-PI in distilled water. The suspension was incubated for 20 minutes in the dark at room temperature. Cells were measured by CytoFLEX flow cytometer, recorded by CytExpert Software (Beckman Coulter INC, Brea, CA, USA). In each analysis, 20,000 events were recorded inside the FSC/SSC gate, and the percentages of the cells in the different phases of the cell cycle were determined and analyzed using ModFit LT 6.0 software.

HeLa cells [4] = experiment: Mitochondrial membrane potential assay (JC-10, flow cytometry); type: cell-based, human; settings: 24 h
Description: JC-10 dye was used to investigate the changes in the mitochondrial membrane potential. JC-10 is a cationic dye that can pass through the cell membrane and accumulate in healthy mitochondria by forming reversible red-fluorescent aggregates. In addition, changes in membrane potential result in the failure to retain the aggregates. Therefore, the dye returns to the cytosol in green monomeric form. Mitochondrial changes may be detected by measuring the green and red fluorescent signals together.
Hela cells were seeded into 12-well plates at 200,000 cells/well density and incubated overnight. Cells were treated with 1 and 2 µM of 17c for 24 h and 10 µM of CCCP as reference compound ^S1. After the incubation, cells were collected and centrifuged at 1100 rpm for 6 minutes, then washed with PBS. After centrifugation, 300 µl dye solution (20 µM JC-10 final concentration) was added to the pellet. After 5 min incubation, cells were measured by CytoFLEX flow cytometer, recorded by CytExpert Software (Beckman Coulter INC, Brea, CA, USA) reading of red and green fluorescence on 525 and 585 channels.

[5] = test system: human adherent cancer cell lines (HeLa, SiHa, C33A, MCF-7 and MDA-MB-231); experiment: MTT assay, whole panel of cell lines; type: cell-based
Protocol: as §1, §2, §3

MDA-MB-231 [6] = test system: MDA-MB-231; set-up: method as in PMID 21912610, PMID 28436164; settings: cited from earlier work
MCF-7dox = test system: MCF-7dox; set-up: method as in PMID 21912610, PMID 28436164; settings: MCF-7 adapted to doxorubicin; cited from earlier work

Compound	inhibition at 10 µM (MCF-7)	inhibition at 30 µM (MCF-7)	IC50 (MCF-7)	inhibition at 10 µM (MDA-MB-231 [1])	inhibition at 30 µM (MDA-MB-231 [1])	IC50 (MDA-MB-231 [1])	inhibition at 10 µM (HeLa)	inhibition at 30 µM (HeLa)	IC50 (HeLa)	inhibition at 10 µM (SiHa)	inhibition at 30 µM (SiHa)	IC50 (SiHa)	inhibition at 10 µM (C33A)	inhibition at 30 µM (C33A)	IC50 (C33A)	inhibition at 10 µM [2]	inhibition at 30 µM [2]	IC50 [2]	IC50 (MDA-MB-231 [6])	other results
CCCCOC1(c2cc(=O)c3c(Oc4ccc(C(C)(C)C)cc4)cc(O)cc3o2)C=CC(=O)C=C1 [17c, 2-(1-Butoxy-4-oxocyclohexa-2,5-dienyl)-5-(4-tert-butylphenoxy)-7-hydroxy-chromen-4-one]	98.5%	98.9%	600 nM	98.3%	97%	420 nM	98%	98%	470 nM	89.8%	96.2%	640 nM	97.9%	97.9%	390 nM	92.7%	99%	930 nM		subG1 phase (HeLa cells [3]): substantial subG1 phase elevation; proportion of the cells at G2/M phase (HeLa cells [3]; concentration-dependent): significantly increases; number of mitochondrial membrane-disrupted cells (HeLa cells [4]; 1 and 2 µM, vs untreated controls): significantly increased; effect on mitochondrial membrane potential compared with reference agent CCCP (HeLa cells [4]; CCCP 10 µM): more substantial than that of the applied reference agent CCCP; IC50 ([5]; Homo sapiens, MTT, 72 h, range across cell lines, read-out: IC50 range over the investigated cell lines): 390 to 640 nM; times stronger activity than parent compound 10 ([5]; ratio of IC50 values, all investigated cell lines): 2.5–5 times
O=C1C=CC(O)(c2cc(=O)c3c(O)cc(O)cc3o2)C=C1 [compound 9, Protoapigenone]																			1350 nM	
CCCCOC1(c2cc(=O)c3c(O)cc(O)cc3o2)C=CC(=O)C=C1 [compound 10, 1′-O-butyl protoapigenone, reference compound]	87.7%	93.3%	3030 nM	91.7%	92.8%	1060 nM	95.7%	96.2%	1430 nM	92.2%	96.3%	1600 nM	98%	98.5%	970 nM	95.5%	99.1%	2270 nM	620 nM	
O=C1C=CC(O)(c2cc(=O)c3cc(-c4ccccc4)ccc3o2)C=C1 [compound 11]																				IC50 (MCF-7dox): 1230 nM
